The values below come from patent publication US6566380B2, “Potassium channel inhibitors” (ICAgen, Inc., priority 2000, dated 2003).

Where two headings read alike, the source gives them in different places.

As usually defined, the inhibition is the change of the read-out against control, counted positive when it falls.

The target in the experiment is Kv1.5 potassium channel (Homo sapiens, UniProt P22460). In words: Electrophysiological studies: whole-cell patch clamp of Kv1.5 currents in CHO cells. It counts as cell-based. The note with it: Chinese hamster ovary cells stably expressing Kv1.5, whole-cell voltage clamp. The method, then: Electrophysiological recordings of potassium currents in Chinese hamster ovary cells stably expressing the gene construct for the Kv1.5 potassium channel subunit were performed using the whole cell configuration of the patch clamp technique (Hamill et al., Pflugers Archiv 391:85, 1981). Cell lines expressing Kv1.5 were prepared using standard techniques known to those skilled in the art. Cells were plated on glass coverslips at a density of 2×10^4 cells/coverslip and used within 24-48 hours. Solutions used for electrophysiological recordings were as follows. Extracellular bathing solutions typically contain (in mM) 132 NaCl, 5.4 KCl, 1.8 CaCl2, 0.8 MgCl2, 10 HEPES, 5 glucose at pH 7.3. […] The coverslips were placed in a small chamber (volume ˜200 μl) on the mechanical stage of an inverted microscope and perfused (approximately 2 ml/min) with extracellular recording solution. Drug was applied using a series of narrow-bore glass capillary tubes (inner diameter ˜100 μm) positioned approximately 200 μm from the cell.
Chain of Kv1.5 potassium channel (P22460 whole entry): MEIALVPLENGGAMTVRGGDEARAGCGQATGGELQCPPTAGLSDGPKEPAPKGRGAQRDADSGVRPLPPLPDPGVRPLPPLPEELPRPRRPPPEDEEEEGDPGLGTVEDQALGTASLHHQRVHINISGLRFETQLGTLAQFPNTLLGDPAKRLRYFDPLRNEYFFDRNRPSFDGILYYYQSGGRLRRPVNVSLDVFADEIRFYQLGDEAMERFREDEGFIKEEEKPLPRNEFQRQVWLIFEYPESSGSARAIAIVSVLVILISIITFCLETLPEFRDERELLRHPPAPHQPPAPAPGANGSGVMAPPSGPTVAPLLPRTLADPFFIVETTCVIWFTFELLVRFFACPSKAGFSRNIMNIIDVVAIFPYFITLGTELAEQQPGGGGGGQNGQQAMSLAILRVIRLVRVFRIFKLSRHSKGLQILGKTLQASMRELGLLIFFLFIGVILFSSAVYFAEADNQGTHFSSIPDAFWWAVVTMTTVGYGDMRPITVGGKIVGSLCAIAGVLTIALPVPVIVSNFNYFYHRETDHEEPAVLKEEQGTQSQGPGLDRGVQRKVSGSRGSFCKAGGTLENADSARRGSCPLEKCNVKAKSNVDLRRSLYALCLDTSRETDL
As soon as the current recording were stable, a compound representative of the present invention was superfused over the cell until steady-state block was observed. Using this technique, the effects of the compound on peak and steady-state current were determined at progressively increasing compound concentrations.
The testing results of selected compounds from Table 2 using this assay and the techniques described above are reported in Table 3 as the percent inhibition of Kv1.5 potassium channel currents at a single concentration of 0.1 μM.
(Patch clamp records ionic current or voltage across a cell membrane.)

Where [1] appears, read: read-out: Peak current inhibition at 0.1 μM (%).
Where [2] appears, read: read-out: Steady-state Current Inhibition at 0.1 μM (%).

Consider `C[C@H](CC(=O)N(Cc1nccn1C)c1ccc2c(c1)[C@@H](NS(=O)(=O)c1cccc(F)c1)CCC2)c1ccccc1` [Example 12], for which the inhibition at 0.1 µM reads like this: under setting [1], 68%; under setting [2], 85%.

For `C[C@@H](CC(=O)N(Cc1nccn1C)c1ccc2c(c1)[C@H](NS(=O)(=O)c1cccc(Cl)c1)CCC2)c1ccccc1` [Example 17], the inhibition at 0.1 µM reads like this: under setting [1], 84%; under setting [2], 97%.

For `C[C@@H](CC(=O)N(Cc1nccn1C)c1ccc2c(c1)[C@@H](NS(=O)(=O)c1ccc(F)cc1)CCC2)c1ccccc1` [Example 9], the inhibition at 0.1 µM runs as follows: under setting [1], 53%; under setting [2], 61%.

For the compound `Cc1ncc(CN(C(=O)C[C@@H](C)c2ccccc2)c2ccc3c(c2)[C@@H](NS(=O)(=O)c2cccc(F)c2)CCC3)n1C(C)C` [Example 20], the inhibition at 0.1 µM under setting [1] came to 52% and the inhibition at 0.1 µM under setting [2] was found to be 64%.

As for `C[C@@H](CC(=O)N(Cc1nccn1C)c1ccc2c(c1)[C@H](NS(=O)(=O)c1cccc(F)c1)CCC2)c1ccccc1` [Example 16], the inhibition at 0.1 µM runs as follows: under setting [1], 88%; under setting [2], 100%.

For the compound `C[C@@H](CC(=O)N(Cc1nccn1C)c1ccc2c(c1)[C@H](NS(=O)(=O)c1ccccc1)CCC2)c1ccccc1` [Example 11], the inhibition at 0.1 µM is, setting by setting: under setting [1], 76%; under setting [2], 91%.

Regarding `C[C@@H](CC(=O)N(Cc1nccn1C)c1ccc2c(c1)[C@@H](NS(=O)(=O)c1cccc(Cl)c1)CCC2)c1ccccc1` [Example 6], the inhibition at 0.1 µM under setting [1] turned out to be 30% and the inhibition at 0.1 µM under setting [2] was 81%.

Take `Cc1cccc(CN(C(=O)C[C@@H](C)c2ccccc2)c2ccc3c(c2)[C@@H](NS(=O)(=O)c2ccccc2)CCC3)n1` [Example 23]: the inhibition at 0.1 µM reads like this: under setting [1], 75%; under setting [2], 90%.

Consider `C[C@@H](CC(=O)N(Cc1nccn1C)c1ccc2c(c1)[C@H](NS(=O)(=O)c1cccs1)CCC2)c1ccccc1` [Example 19], for which the inhibition at 0.1 µM by setting is: under setting [1], 53%; under setting [2], 79%.

Take `C[C@H](CC(=O)N(Cc1nccn1C)c1ccc2c(c1)[C@@H](NS(=O)(=O)c1cccc(Cl)c1)CCC2)c1ccccc1` [Example 2]: the inhibition at 0.1 µM under setting [1] was 86% and the inhibition at 0.1 µM under setting [2] is 96%.

With `COc1ccc(S(=O)(=O)N[C@H]2CCCc3ccc(N(Cc4nccn4C)C(=O)C[C@@H](C)c4ccccc4)cc32)cc1` [Example 18], the inhibition at 0.1 µM was determined as 72% under setting [1] and 84% under setting [2].

For the compound `CC(CC(=O)N(Cc1nccn1C)c1ccc2c(c1)C(NS(=O)(=O)c1ccc(F)cc1)CCC2)c1ccccc1` (centres unmarked) [Example 1], the inhibition at 0.1 µM runs as follows: under setting [1], 42%; under setting [2], 67%.

For `C[C@@H](CC(=O)N(Cc1nccn1C)c1ccc2c(c1)[C@@H](NS(=O)(=O)c1ccccc1)CCC2)c1ccccc1` [Example 5], the inhibition at 0.1 µM runs as follows: under setting [1], 45%; under setting [2], 78%.

Turning to `Cc1cccc(CN(C(=O)C[C@H](C)c2ccccc2)c2ccc3c(c2)[C@H](NS(=O)(=O)c2ccccc2)CCC3)n1` [Example 25], the inhibition at 0.1 µM is, setting by setting: under setting [1], 26%; under setting [2], 50%.

Consider `Cc1cccc(CN(C(=O)C[C@@H](C)c2ccccc2)c2ccc3c(c2)[C@@H](NS(=O)(=O)c2ccc(F)c(Cl)c2)CCC3)n1` [Example 24], for which the inhibition at 0.1 µM under setting [1] was found to be 48% and the inhibition at 0.1 µM under setting [2] was determined as 65%.

For the compound `C[C@H](CC(=O)N(Cc1nccn1C)c1ccc2c(c1)[C@@H](NS(=O)(=O)c1ccccc1)CCC2)c1ccccc1` [Example 4], the inhibition at 0.1 µM under setting [1] turned out to be 86% and the inhibition at 0.1 µM under setting [2] was found to be 89%.

In the case of `C[C@H](CC(=O)N(Cc1nccn1C)c1ccc2c(c1)[C@@H](NS(=O)(=O)c1ccc(F)c(Cl)c1)CCC2)c1ccccc1` [Example 3], the inhibition at 0.1 µM reads like this: under setting [1], 84%; under setting [2], 93%.

As to `C[C@@H](CC(=O)N(Cc1nccn1C)c1ccc2c(c1)[C@H](NS(=O)(=O)c1cccc(F)c1)CCC2)c1ccc(F)cc1` [Example 26], the inhibition at 0.1 µM is 52% under setting [1] and 76% under setting [2].

For `Cc1ncc(CN(C(=O)C[C@@H](C)c2ccccc2)c2ccc3c(c2)[C@@H](NS(=O)(=O)c2ccccc2)CCC3)n1C(C)C` [Example 21], the inhibition at 0.1 µM was 58% under setting [1] and 67% under setting [2].
